Experimental data as given in article PMC4015918, “Conjugation to a SMAC mimetic potentiates sigma-2 ligand induced tumor cell death in ovarian cancer” (Molecular Cancer, 2014).

Key:
[1] = Adverse effects after 3 weeks of intraperitoneal treatment: necropsy, complete blood count, serum chemistries; format: in vivo, SCID mice; settings: for Peritonitis at necropsy: also seen in vehicle treated mice
Description: In vivo experiments were conducted with 15 mice per treatment group. Treatment involved daily intraperitoneal injections with 90 μL of SW43 (7.5 mM stock), SW IV-134 (7.5 mM stock), or vehicle-only (25% cremophor in H2O) for 3 weeks. Tumor burden was monitored by bioluminescence imaging once a week during the treatment period. At the end of the treatment, 5 mice were randomly removed per treatment group and submitted for necropsy to the Washington University Department of Comparative Medicine. Blood samples were collected by intracardiac withdrawal prior to necropsy for chemistry and hematology work-up. In addition, various key organs were harvested for gross and histopathological examination. The remaining 10 mice from each treatment group were followed over time to examine overall survival. For survival studies, actual death or poor physical condition/large tumor size meeting criteria for euthanasia, constituted a death event.
Supplementary file 1476-4598-13-50-S6.pdf: Additional file 6: Table S2 Complete blood count and serum chemistries for severe combined immunodeficient (SCID) mice treated with SW IV-134, SW43, and vehicle control. SCID mice were treated daily with intra-peritoneal injections of SW IV-134, SW43, and vehicle control for 3 weeks. At the end of treatment, blood was collected from mice in each treatment group and analyzed for hemoglobin, white blood count, and platelets. Serum chemistries were also obtained to determine the levels of liver enzymes aspartate aminotransferase (AST) and alanine aminotransferase (ALT), renally cleared metabolites blood urea nitrogen (BUN) and creatinine, as well as total protein and glucose. The mice treated with SW134 were noted to have a statistically significant decrease in hemoglobin and an increase in white blood count compared to those treated with SW43 or vehicle control. Click here for file […]
Table S2: Complete b l o od count and ser um chemistries f or SCI D mice treated with SW IV-134, SW43, and vehicle. SC ID m ic e were treated daily with intra- peritoneal injections of SW 134, SW 43, and vehicle control fo r 3 weeks. At the end of treatment, bloo d was co lle ct ed from mice in each treatment gro up and analyzed for hemoglobin, w hit e bloo d co un t , and plate lets. S e r um chemistries were also obtained to determine the levels of l iv e r enzymes as pa rt at e aminotransferase ( A ST ) and alanine aminotransferase (ALT), renally cleared metabolites blood urea nitrogen ( BUN) and creatinine, as well as tot al protein a nd gl uco s e. The mice treated w it h SW IV- 134 were no te d to have a statistically significant decrease in hemoglobin and an increase in w hit e bloo d co u nt compared to those treated with SW43 or vehicle control.

[2] = test system: ovarian cancer cell lines (SKOV3, OVCAR3, HEY A8, HEY A8 MDR); test: Cell viability (CellTiter-Glo) in a panel of four ovarian cancer cell lines; format: cell-based; settings: increasing doses, 18 hours
Description: (A) SKOV3, (B) OVCAR3 (C) HEY A8 and (D) HEY A8 MDR cells were treated with increasing doses of SW43, SW IV-52, SW43 plus SW IV-52, and SW IV-134 for 18 hours. Cell viability was determined by CellTiter-Glo assays [p < 0.015 (A), NS (B), p < 0.017 (C), p < 0.034 (D), one-way ANOVA].
Cells (1 × 10^4) were seeded into 96 well plates. Treatment as described in the figure legends was initiated the following day. Cell viability was determined 18 hours after treatment using CellTiter-Glo Luminiscent Viability Assay (Promega, Madison, WI). Data were recorded with a SpectraMax Gemini microplate spectrofluorometer, Molecular Devices (Silicon Valley, CA).

SKOV3 cells = test: Blocking study: competition with uptake of fluorescent sigma-2 ligand SW120, flow cytometry; format: cell-based; settings: SKOV3 cells pretreated 30 min with increasing concentrations, then 10 nM SW120 for 30 min
Description: Figure 1 Compound structures and cell binding characteristics of SW IV-134. (A) The chemical structures of sigma-2 ligand SW43, the SMAC peptidomimetic SW IV-52, and the chemical conjugate SW IV-134. Note that the chirality of SW IV-52 is fully retained in the drug conjugate (asterisks). […] SKOV3 cells were pretreated with increasing concentration of SW IV-134, followed by incubation with SW120, prior to analysis by flow cytometry.
SKOV3 cells (3 × 10^4/well) were seeded into 6 cm plates for 24 hours before treatment. The cells were incubated with 5, 10, 50, and 100 μM doses of SW IV-134 for 30 minutes at 37°C. After this step, 10 nM SW120 was added to the cell culture medium containing SW IV-134. After 30 minute incubation at 37°C, cells were washed twice with phosphate buffered saline (PBS) and harvested with 0.05% trypsin EDTA (Life Technologies, Grand Island, NY). The cells were centrifuged at 1000 × g for 5 minutes and pellets washed twice with PBS. Internalization of SW120 was determined by flow cytometer (FACSCalibur, BD Biosciences, San Jose, CA).
Supplementary file 1476-4598-13-50-S2.pdf: Additional file 2: Figure S1 Receptor binding characteristics of the individual components of SW IV-134. SKOV3 cells were pretreated with increasing concentration of (A) SW43 and (B) SW IV-52, followed by incubation with SW120, prior to analysis by flow cytometry. […] Click here for file

[3] = SCID mice, daily i.p. 3 weeks, end of treatment

SMILES	ALT, mean [1, 3]	BUN, mean [1, 3]	Creatinine, mean [1, 3]	Hemoglobin, mean [1, 3]	Total bilirubin, mean [1, 3]	Total protein, mean [1, 3]	WBC, mean [1, 3]	Peritonitis at necropsy ([1]; i.p. daily for 3 weeks)	Killing activity (cell viability) [2]	Blocking of SW120 uptake (SKOV3 cells)	AST, mean [1, 3]	Glucose, mean [1, 3]	Platelet, mean [1, 3]	Splenomegaly ([1]; i.p. daily for 3 weeks)
COc1ccc(C)cc1NC(=O)OC1CC2CCCC(C1)N2CCCCCCCCCCN (stereo not drawn) [SW43, reference compound]	56.0 u/L	22.3 mg/dL	0.3 mg/dL	11.7 g/dL	0.1 mg/dL	5.8 g/dL	3.2 103 /µl	mild to moderate peritonitis	effective against different ovarian cancer cell lines	prevents uptake of the fluorescently labeled sigma-2 ligand SW120 in a dose-dependent fashion				
COc1ccc(C)cc1NC(=O)OC1CC2CCCC(C1)N2CCCCCCCCCCN[C@@H](C)C(=O)N[C@H](C(=O)N1CCC[C@H]1C(=O)N[C@@H]1CCCc2ccccc21)C(C)(C)C (stereo partly drawn) [SW IV-134]	84.0 u/L	24.8 mg/dL	0.4 mg/dL	9.5 g/dL	0.1 mg/dL	6.0 g/dL	19.3 103 /µl	mild to moderate peritonitis	greater cytotoxicity	dose-dependent reduction of SW120 signal intensity	91.4 u/L	103.6 mg/dL	1063.8 103 /µl	mild splenomegaly
